System: fibroblasts (or smooth muscle cells)
Test: Measurement of lateral intrinsic forces of a cell layer cultured on an elastically deformable membrane (membrane deflection read by laser)
Type: cell-based
Conditions: for change in cell layer tension in dependence on time: FIG. 4, consecutive addition of thrombin (20, 50, 100 U/ml), EDTA (0.1% by weight, 2 min), trypsin (0.2% by weight, 15 min); for tension transmitted to the membrane (intrinsic forces): FIG. 5 and FIG. 6, addition of thrombin, then EDTA, then trypsin
Method: A commercially available PET membrane is adhered to an open end of a cylinder; the other end remains open. During the adhesion process, a metal ring is used to pull uniformly on the membrane, such that the membrane is then stretched so that it is completely flat but not plastically deformed. 400 μl of cell culture medium (DPBS), corresponding to a fill height of a liquid column of about 2 mm, are then applied to the membrane (having a diameter of 16 mm). Due to the culture medium, the membrane is elastically preformed, i.e. deflected, and prepared for the application of living material.
1 ml of a suspension of fibroblasts (or smooth muscle cells), containing a cell count of 5×10^4/ml (or 7×10^4/ml), is then added to the prestretched membrane and the entire device is incubated in an incubator at 37° C. for 4 days for the purpose of culturing the cells. After the culturing, the culture medium is replaced with 400 μl of fresh medium. The mounting, together with membrane and cells cultured on it, which has thus been prepared is inserted into the measuring device and the measurement is carried out using a laser beam as the sensor.
As a result of replication, the cells adhere to the membrane and form a confluent monolayer (or multilayer). In connection with this, the cells secrete, over time, an extracellular matrix (ECM).
As a result of the growth of the cells, and the tensile stress in the cell layer and in the ECM which is connected therewith, and as a result of the fact that the cells and the ECM adhere to the membrane, the membrane experiences a change in tension. As a consequence of this, the deflection of the membrane decreases and raises the fill level of the medium slightly. This change in the deflection of the membrane is determined using a laser.
In order to stimulate the cell layer(s), thrombin is added to the medium to give final concentrations of 0-100 U/ml. 20 U/ml of culture medium are added first of all. The thrombin binds to the thrombin receptors and induces cell contraction. The membrane rises further to a slight extent. In this connection, the cells contract with a time constant which is typical. After a theoretically infinite measuring time, the measured change in the deflection of the membrane reaches a typical saturation value. Further quantities of thrombin are added consecutively to the cell culture medium above the membrane in increasing order, i.e. initially 50 U/ml and then 100 U/ml. The changes in the deflection of the membrane are measured correspondingly.
In each case, the cells are permitted to develop the contraction until, in the simplest case by way of fitting an exponential function, there is no need to await the achievement of the final value but, instead, the final measurement of the achievable concentration can be approximated. This decreases the measuring time. Both the characteristic onset time for the thrombin-mediated contraction effect and the maximum contraction which can be achieved in association with this contraction can be calculated from the exponential function which has been fitted.
The cells are detached from the ECM by adding EDTA (0.1% by weight) for a reaction time of 2 min. The same volumes as the quantities of liquid which are added in this connection are simultaneously removed once again at another site in the measuring chamber. The cells become detached with a typical time constant. As a consequence of this, the tension in the membrane changes since the forces acting on the membrane as a result of the cell contraction are no longer present; this means that the membrane becomes further deflected once again. In this case, too, an exponential function is approximated and the time constant and the final value of the tension recovery can be calculated approximately.
The ECM which is adhering to the membrane still maintains a part of the tension which arose during the cell growth. Adding trypsin (0.2% by weight) for a reaction time of 15 min. degrades the ECM. […]

Row | Compound | change in cell layer tension in dependence on time | tension transmitted to the membrane (intrinsic forces)
1 | O=C(O)CN(CCN(CC(=O)O)CC(=O)O)CC(=O)O [EDTA] | intrinsic forces which are measured decrease | membrane relaxing
2 | thrombin | contraction of the living material can be observed to increase as the concentration of thrombin increases | increase markedly
3 | trypsin | also declines | tension in the extracellular matrix to subside

Reference: US20040033482A1, “Device and method for the measurement of forces from living materials” (priority 2000, published 2004)
